PubChem BioAssay AID2060627 (Molecular Pharmacology Branch, DTP, NCI, 2025)
Values joined by “and” are separate entries in the source; they are usually repeats but may differ in a detail not shown here. Identical values can stand only once. Values belong to the compound of their own block, whether it stands above or below them.

Tested on: 156681-154-R-J1-PDC complex spheroid viability
Assay: Anticancer human tumor 156681-154-R-J1-PDC patient-derived melanoma cell line growth inhibition [CLK]
Details: for viability, T/C: stronger effect = lower value
Summary of the method: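 Patient-derived tumor cells grown as complex spheroids with HUVEC endothelial cells and mesenchymal stem cells, treated with drug combinations. Concentrations descend in half-log steps from near clinical Cmax, or from 10 microM if Cmax unknown.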

[1] = curve of first compound, second compound 0.0316 µM
[2] = curve of first compound, second compound 0.1 µM
[3] = curve of first compound, second compound 0.316 µM
[4] = curve of first compound, second compound 1 µM
[5] = curve of first compound, second compound 3.16 µM
[6] = curve of first compound, second compound 10 µM
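Further: spheroids exposed to the agents for seven days.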
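Wherever viability, T/C is given: 100% = DMSO vehicle control viability.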

IC50 [1]: > 100 nM
IC50 [2]: > 100 nM
IC50 [3]: > 100 nM
IC50 [4]: 0.316 nM
IC50 [5]: < 0.316 nM
IC50 [6]: < 0.316 nM
Structure (SMILES): Cn1ncnc1[C@H]1c2n[nH]c(=O)c3cc(F)cc(c23)N[C@@H]1c1ccc(F)cc1 + CNC(=O)c1ccc(Nc2nc(OC3CCCC3)c3c(-c4ccc5nc(C)oc5c4)c[nH]c3n2)c(OC)c1
viability, T/C (second compound 0.0316 µM, first compound 0.000316 µM): 91.5%
viability, T/C (second compound 0.0316 µM, first compound 0.001 µM): 87.8%
viability, T/C (second compound 0.0316 µM, first compound 0.00316 µM): 74.9%
viability, T/C (second compound 0.0316 µM, first compound 0.01 µM): 84.6%
viability, T/C (second compound 0.0316 µM, first compound 0.0316 µM): 83.2%
viability, T/C (second compound 0.0316 µM, first compound 0.1 µM): 64.1%
viability, T/C (second compound 0.1 µM, first compound 0.000316 µM): 56.9%
viability, T/C (second compound 0.1 µM, first compound 0.001 µM): 68.6%
viability, T/C (second compound 0.1 µM, first compound 0.00316 µM): 75.9%
viability, T/C (second compound 0.1 µM, first compound 0.01 µM): 66.6%
viability, T/C (second compound 0.1 µM, first compound 0.0316 µM): 62.3%
viability, T/C (second compound 0.1 µM, first compound 0.1 µM): 53.5%
viability, T/C (second compound 0.316 µM, first compound 0.000316 µM): 67%
viability, T/C (second compound 0.316 µM, first compound 0.001 µM): 68.4%
viability, T/C (second compound 0.316 µM, first compound 0.00316 µM): 55.4%
viability, T/C (second compound 0.316 µM, first compound 0.01 µM): 58.4%
viability, T/C (second compound 0.316 µM, first compound 0.0316 µM): 60%
viability, T/C (second compound 0.316 µM, first compound 0.1 µM): 51.9%
viability, T/C (second compound 1 µM, first compound 0.000316 µM): 51.8%
viability, T/C (second compound 1 µM, first compound 0.001 µM): 51.1%
viability, T/C (second compound 1 µM, first compound 0.00316 µM): 39.8%
viability, T/C (second compound 1 µM, first compound 0.01 µM): 44.3%
viability, T/C (second compound 1 µM, first compound 0.0316 µM): 53.6%
viability, T/C (second compound 1 µM, first compound 0.1 µM): 29.3%
viability, T/C (second compound 3.16 µM, first compound 0.000316 µM): 55.1%
viability, T/C (second compound 3.16 µM, first compound 0.001 µM): 41.5%
viability, T/C (second compound 3.16 µM, first compound 0.00316 µM): 43.6%
viability, T/C (second compound 3.16 µM, first compound 0.01 µM): 49.5%
viability, T/C (second compound 3.16 µM, first compound 0.0316 µM): 39.5%
viability, T/C (second compound 3.16 µM, first compound 0.1 µM): 33.1%
viability, T/C (second compound 10 µM, first compound 0.000316 µM): 49.3%
viability, T/C (second compound 10 µM, first compound 0.001 µM): 43.9%
viability, T/C (second compound 10 µM, first compound 0.00316 µM): 33.6%
viability, T/C (second compound 10 µM, first compound 0.01 µM): 32.5%
viability, T/C (second compound 10 µM, first compound 0.0316 µM): 38.6%
viability, T/C (second compound 10 µM, first compound 0.1 µM): 25.4%

Structure (SMILES): CC(C)CC(NC(=O)C(Cc1ccccc1)NC(=O)c1cnccn1)B(O)O (stereo unspecified) + CN1CCN(c2cc(C(=O)Nc3cc4cc(-c5cnn(C)c5)ccc4cn3)ccn2)CC1
IC50 [1]: < 0.949 nM
IC50 [2]: < 0.949 nM
IC50 [3]: < 0.949 nM
IC50 [4]: < 0.949 nM
IC50 [5]: < 0.949 nM
IC50 [6]: < 0.949 nM
viability, T/C (second compound 0.0316 µM, first compound 0.000949 µM): 30.4%
viability, T/C (second compound 0.0316 µM, first compound 0.003 µM): 2%
viability, T/C (second compound 0.0316 µM, first compound 0.00949 µM): 1.41%
viability, T/C (second compound 0.0316 µM, first compound 0.03 µM): 0.26%
viability, T/C (second compound 0.0316 µM, first compound 0.0949 µM): 1.66%
viability, T/C (second compound 0.0316 µM, first compound 0.3 µM): 1.32%
viability, T/C (second compound 0.1 µM, first compound 0.000949 µM): 28%
viability, T/C (second compound 0.1 µM, first compound 0.003 µM): 0.48%
viability, T/C (second compound 0.1 µM, first compound 0.00949 µM): 1.04%
viability, T/C (second compound 0.1 µM, first compound 0.03 µM): 0.2%
viability, T/C (second compound 0.1 µM, first compound 0.0949 µM): 0.26%
viability, T/C (second compound 0.1 µM, first compound 0.3 µM): 0.77%
viability, T/C (second compound 0.316 µM, first compound 0.000949 µM): 13%
viability, T/C (second compound 0.316 µM, first compound 0.003 µM): 0.37%
viability, T/C (second compound 0.316 µM, first compound 0.00949 µM): 0.66%
viability, T/C (second compound 0.316 µM, first compound 0.03 µM): 0.14%
viability, T/C (second compound 0.316 µM, first compound 0.0949 µM): 0.29%
viability, T/C (second compound 0.316 µM, first compound 0.3 µM): 1.48%
viability, T/C (second compound 1 µM, first compound 0.000949 µM): 0.13%
viability, T/C (second compound 1 µM, first compound 0.003 µM): 0.37%
viability, T/C (second compound 1 µM, first compound 0.00949 µM): 0.14%
viability, T/C (second compound 1 µM, first compound 0.03 µM): 0.09%
viability, T/C (second compound 1 µM, first compound 0.0949 µM): 1.37%
viability, T/C (second compound 1 µM, first compound 0.3 µM): 0.12%
viability, T/C (second compound 3.16 µM, first compound 0.000949 µM): 0.33%
viability, T/C (second compound 3.16 µM, first compound 0.003 µM): 1.51%
viability, T/C (second compound 3.16 µM, first compound 0.00949 µM): 0.09%
viability, T/C (second compound 3.16 µM, first compound 0.03 µM): 0.08%
viability, T/C (second compound 3.16 µM, first compound 0.0949 µM): 3.52%
viability, T/C (second compound 3.16 µM, first compound 0.3 µM): 1.36%
viability, T/C (second compound 10 µM, first compound 0.000949 µM): 0.1%
viability, T/C (second compound 10 µM, first compound 0.003 µM): 1.45%
viability, T/C (second compound 10 µM, first compound 0.00949 µM): 2.17%
viability, T/C (second compound 10 µM, first compound 0.03 µM): 0.1%
viability, T/C (second compound 10 µM, first compound 0.0949 µM): 1.66%
viability, T/C (second compound 10 µM, first compound 0.3 µM): 0.84%

IC50 (curve of compound): < 3.16 nM
Structure (SMILES): CCc1c2c(nc3ccc(O)cc13)-c1cc3c(c(=O)n1C2)COC(=O)[C@]3(O)CC
viability, T/C (compound 0.00316 µM): 38.3% and 25.9%
viability, T/C (compound 0.01 µM): 16.9% and 13.7%
viability, T/C (compound 0.0316 µM): 15.6% and 16.5%
viability, T/C (compound 0.1 µM): 21.3% and 17.4%
viability, T/C (compound 0.316 µM): 16.8% and 17.7%
viability, T/C (compound 1 µM): 4.59% and 4.21%
